Data on 2 molecules can be found in patent publication US9598387B2 (Southern Research Institute, priority 2012, dated 2017).

SMILES strings stand for the structures.

One assay deals with human D2 receptors (Homo sapiens (Human), UniProt P14416). The assay is described as follows: D2 Mitogenesis Functional Assay (3H-thymidine uptake, CHOp-D2 cells). The class given is cell-based.
The target in assay [1] is T1, D3R (Homo sapiens (Human), UniProt P35462). As to the kind of experiment: β-Arrestin Recruitment Assay, U2OS DRD3. The class given is cell-based. The following applies: for IC50: antagonist vs EC80 8 nM PD128907, U2OS DRD3 cells, read-out: D3 IC50; for D2 IC50/D3 IC50: ratio of β-arrestin IC50 values. The method, then: (§1) Antagonist potency of the compounds against agonist induced recruitment of β-arrestin by D3R and D2LR was measured using DiscoverRx PathHunter eXpress kits. […] After incubation at 37° C. for 90 min, the DiscoveRx detection reagent was added, the plates were incubated at room temperature for 60 min and the luminescence was measured on a Synergy 4 plate reader (BioTek). The data were plotted and the agonist EC80 values were calculated using GraphPad Prism software. For antagonist activity, the cells were plated as described above and treated with multiple concentrations (starting from 500 nM, half log dilution, 10 dose points) of the test compounds in Plating Reagent with 0.1% DMSO.
T1 sequence (P35462 whole entry): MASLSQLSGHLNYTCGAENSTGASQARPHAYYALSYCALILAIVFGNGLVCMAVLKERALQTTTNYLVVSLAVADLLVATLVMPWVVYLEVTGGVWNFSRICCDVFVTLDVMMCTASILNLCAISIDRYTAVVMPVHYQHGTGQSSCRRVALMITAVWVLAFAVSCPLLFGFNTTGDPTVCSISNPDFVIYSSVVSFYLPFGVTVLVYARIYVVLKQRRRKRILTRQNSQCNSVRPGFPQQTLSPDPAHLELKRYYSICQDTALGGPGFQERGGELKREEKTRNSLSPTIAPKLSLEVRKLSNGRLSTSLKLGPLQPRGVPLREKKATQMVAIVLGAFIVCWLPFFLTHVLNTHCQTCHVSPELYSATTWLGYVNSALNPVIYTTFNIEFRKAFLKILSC

For assay [2], the target named is T2, human D3 dopamine receptor (Homo sapiens (Human), UniProt P35462). As to the kind of experiment: Radioligand binding (125I-IABN competition), D3. The settings on record: for Ki: 125I-IABN competition, HEK cell membranes expressing human D3; for D2/D3 (D3 selectivity ratio, D2 Ki/D3 Ki): calculated D2 Ki/D3 Ki. As for the experimental part:
(§2) The affinities of the target compounds were determined using radioligand binding experiments. […] Competition curves were modeled for a single site. Data from competition dose-response curves were analyzed using Tablecurve program (Jandel). IC50 values were converted to equilibrium dissociation constants (Ki values) using the Cheng and Prusoff correction.

Assay [3] has as its target T1, D3R. The assay is described as follows: D3 Mitogenesis Functional Assay (3H-thymidine uptake, CHOp-D3 cells). The class given is cell-based. The procedure, abridged: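 CHO cells expressing human D3, serum-starved 24 h, then given compound (agonist mode) or antagonist plus 30 nM quinpirole final for 16 h at 37 °C. A 2 h [3H]thymidine pulse was used for uptake.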
The target in assay [4] is human D2 dopamine receptors (Homo sapiens (Human), UniProt P14416). As to the kind of experiment: Whole Cell Adenylyl Cyclase Assay, D2. The class given is cell-based. The settings on record: inhibition of forskolin (100 μM) stimulated cAMP, normalized to quinpirole; compound conc ≥10× Ki (per compound); mean ± S.E.M. As for the experimental part: The intrinsic activity of the compounds was evaluated by determining their ability to inhibit forskolin-dependent (100 μM) stimulation of adenylyl cyclase activity using a whole cell assay. A whole cell-cyclic AMP accumulation assay was performed with stably transfected HEK cells expressing human D2 or D3 dopamine receptors. This assay is an adaptation of an earlier published method (Su et al., Cyclic Nucleotide Res. 1976, 2, 257-285). Details regarding this method have been published (Chu, W. et al. Bioorg. Med. Chem. 2005, 13, 77-87; Taylor, M. et al. Synapse 2010, 64, 251-266). Confluent (60-80%) HEK cells transfected with recombinant D2-like dopamine receptors were grown in DMEM/10% fetal calf serum containing geneticin in […] flasks. The endogenous ATP pool is radioactively labeled by preincubating the cells in serum-free DMEM/25 mM Hepes medium containing 2 μCi/mL of [2,8-^3H]-adenine (20-Ci/mmol) in a 5% CO2 incubator at 37° C. for 75 min. The radioactive medium was removed by aspiration. Serum-free DMEM (5.6 mL) containing 25 mM HEPES, pH 7.4, and 0.1 mM of the phosphodiesterase inhibitor isobutylmethylxanthine was added to the flask. A […] aliquot of cells was removed and added to 50 μL of forskolin (100 μM) and 50 μL of test drug or quinpirole in DMEM-HEPES. The cells were incubated for 20 min at 37° C. (vortexing every 5 min). The reaction was terminated by the addition of 0.5 mL of 10% trichloroacetic acid (w/v) containing 1.0 mM unlabeled cyclic AMP as a recovery standard. Both the [^3H]-cyclic AMP and the [^3H]-ATP fractions were collected following separation using columns of Dowex AG-50W-X4 and alumina. The final yield of [^3H]-cyclic AMP is corrected for column recovery of unlabeled cyclic AMP determined spectrophotometrically (OD259). The results are reported as percent conversion of [^3H]-ATP into [^3H]-cyclic AMP. The values for the percent inhibition are reported as the actual percent of inhibition of the ^3H-cAMP accumulation relative to the assay performed in the absence of a test compound, minus basal activity. […] The percent maximum response is the value for the inhibition normalized to the value for the full agonist quinpirole.
Chain of human D2 dopamine receptors (P14416 whole entry): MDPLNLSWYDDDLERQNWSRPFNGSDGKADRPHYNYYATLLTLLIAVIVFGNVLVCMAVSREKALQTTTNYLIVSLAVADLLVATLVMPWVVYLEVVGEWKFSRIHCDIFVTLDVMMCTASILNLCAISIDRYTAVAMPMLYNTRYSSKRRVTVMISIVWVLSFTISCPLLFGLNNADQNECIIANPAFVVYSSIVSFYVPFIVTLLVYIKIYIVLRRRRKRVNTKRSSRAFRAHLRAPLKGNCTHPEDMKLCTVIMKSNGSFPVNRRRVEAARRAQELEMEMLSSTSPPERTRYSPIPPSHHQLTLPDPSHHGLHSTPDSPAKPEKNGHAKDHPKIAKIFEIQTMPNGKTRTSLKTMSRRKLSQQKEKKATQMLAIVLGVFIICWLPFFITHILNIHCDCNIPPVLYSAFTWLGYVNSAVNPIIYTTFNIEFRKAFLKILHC

Assay [5] concerns the target T2, human D3 dopamine receptor. The assay is described as follows: Whole Cell Adenylyl Cyclase Assay, D3. The settings on record: inhibition of forskolin (100 μM) stimulated cAMP, normalized to quinpirole; compound conc ≥10× Ki (per compound); mean ± S.E.M. The class given is cell-based.
Assay [6] deals with human D2-long dopamine receptor (Homo sapiens (Human), UniProt P14416). The assay is described as follows: Radioligand binding (125I-IABN competition), D2. The following applies: HEK cell membranes expressing human D2-long. As for the experimental part: as §2
Chain of human D2-long dopamine receptor (P14416 whole entry): as above
For the next assay, the target named is D2LR (Homo sapiens (Human), UniProt P14416). The assay is described as follows: β-Arrestin Recruitment Assay, CHO-K1 DRD2L. The class given is cell-based. The settings on record: antagonist vs EC80 6 nM Pergolide, CHO-K1 DRD2L cells; read-out: D2 IC50. The method, then: as §1
Chain of D2LR (P14416 whole entry): as above

T2 sequence (P35462 whole entry): as the sequence (P35462 whole entry) above
Chain of human D2 receptors (P14416 whole entry): as the sequence (P14416 whole entry) above

On to `CC(C)(C)c1nc(N2CCN(CCCCNC(=O)N3CCN(c4ccccc4)CC3)CC2)cc(C(F)(F)F)n1` [Compound 8, N-(4-(4-(2-(tert-Butyl)-6-(trifluoromethyl)pyrimidin-4-yl)piperazin-1-yl)butyl)-4-phenylpiperazine-1-carboxamide], for which the EC50 at human D2 receptors (CHOp-D2 cells, stimulation of mitogenesis, read-out: D2 Agonist EC50) is more than 10000 nM; on D3R [3] (CHOp-D3 cells, stimulation of mitogenesis, read-out: D3 Agonist EC50), more than 10000 nM. Also, the Emax at 10 µM was less than 1% on human D2 receptors (at 10 μM, % maximum stimulation vs quinpirole (100%), read-out: D2 Agonist Emax) and 3% on D3R [3] (at 10 μM, % maximum stimulation vs quinpirole (100%), read-out: D3 Agonist Emax). The “D2 Antagonist Imax” value on human D2 receptors (at 10 μM, inhibition of quinpirole stimulation of mitogenesis) came out at 100% at 10 μM. The IC50 was 440 ± 160 nM on human D2 receptors (read-out: D2 Antagonist IC50), 6.15 ± 0.33 nM at D3R [1], 125 ± 37 nM at D3R [3] (read-out: D3 Antagonist IC50) and more than 500 nM at D2LR. In addition, the “D2 IC50/D3 IC50” value on D3R [1] is listed as more than 81. Besides, the results for the Ki in assay [2] and in assay [6] were 2.7 ± 0.7 nM and 470 ± 34 nM, respectively. Besides, the “D2/D3 (D3 selectivity ratio, D2 Ki/D3 Ki)” value in assay [2] is recorded as 174. Moreover, on D3R [3] (inhibition of quinpirole stimulation of mitogenesis), the “D3 Antagonist Imax” value was 88.2%. Besides, in assay [4], the “D2 Cyclase % Inhibition Normalized” value is −4.8 ± 4.1%. In assay [5], the “D3 Cyclase % Inhibition Normalized” value is reported as 60.7 ± 10.7%.

Consider `COc1ccc2c(c1)CN(C(=O)NCCCCN1CCN(c3cc(C(F)(F)F)nc(C(C)(C)C)n3)CC1)C2` [Compound 40, N-(4-(4-(2-(tert-Butyl)-6-(trifluoromethyl)pyrimidin-4-yl)piperazin-1-yl)butyl)-5-methoxyisoindoline-2-carboxamide], for which, at D3R [1], the IC50 was 0.8 ± 0.24 nM and the “D2 IC50/D3 IC50” value is on record as 196. Moreover, in assay [2], affinity was put at a Ki of 2.3 ± 0.5 nM and the “D2/D3 (D3 selectivity ratio, D2 Ki/D3 Ki)” value was 432. The “D2 Cyclase % Inhibition Normalized” value in assay [4] is recorded as −39.1 ± 12.5%. In assay [5], the “D3 Cyclase % Inhibition Normalized” value turned out to be 30.0 ± 7.9%. The same molecule yielded a Ki in assay [6] of 994 ± 106 nM. Moreover, the IC50 at D2LR was determined as 157 ± 11 nM.
